From patent US20170014354A1, “ZEAXANTHIN FOR TUMOR TREATMENT” (The New York Eye and Ear Infirmary, priority 2012, published 2017)

How the values were obtained:
C918 = assay: MTT cell viability, C918 uveal melanoma; format: cell-based; settings: vs control; for Cell viability: 48 h, MTT; for reduction of cell viabilities: FIG. 1C
Method: (§1) Each malignant tumor cell line was cultured in Dulbecco's modified Eagle's medium (DMEM, GIBCO, Carlsbad, Calif.) supplemented with 10% fetal bovine serum (FBS, GIBCO). Cells were incubated in a humidified 5% CO2 atmosphere at 37° C. After reaching confluence, cells were detached by trypsin-EDTA solution (GIBCO), diluted 1:4-1:6, plated for subculture and were passaged routinely at a dilution of 1:4-1:6 every 4-6 days.
(§2) All cell lines were tested in triplicates.

Hep G2 = assay: MTT cell viability, Hep G2 hepatocellular carcinoma; format: cell-based; settings: 48 h, vs control
Method: as §1, §2

PC-3 = assay: MTT cell viability, PC-3 prostate cancer; format: cell-based; settings: 48 h, vs control
Method: as §1, §2

NCI-H358 = assay: MTT cell viability, NCI-H358 lung cancer; format: cell-based; settings: 48 h, vs control
Method: as §1, §2

OS143 = assay: MTT cell viability, OS143 osteosarcoma; format: cell-based; settings: 48 h, vs control
Method: as §1, §2

A549 = assay: MTT cell viability, A549 lung cancer; format: cell-based; settings: for Cell viability: 48 h, MTT, vs control
Method: as §1, §2

PANC-1 = assay: MTT cell viability, PANC-1 pancreatic cancer; format: cell-based; settings: for Cell viability: 48 h, MTT, vs control
Method: as §1, §2

BC-1 = assay: MTT cell viability, BC-1 lymphoma; format: cell-based; settings: for Cell viability: 48 h, MTT, vs control
Method: as §1, §2

malignant hepatic tumor = assay: Treatment of a patient with recurred malignant hepatic tumor; format: in vivo, human; settings: one patient
Method: In this example, zeaxanthin was used to treat a patient with malignant hepatic tumor. […] The tumor recurred in a few months in the patient after resection. The patient was then treated with zeaxanthin in view of the extensive and safe use of zeaxanthin as a supplement of the treatment of macular disorders.
In treating the recurred malignant hepatic tumor in the patient, we prescribed a dose of 80 mg/day of zeaxanthin which was used to supplement their conventional treatment of Avastin® infusion. […] The patient's condition continued to improve under the combination therapy of zeaxanthin and Avastin® infusion in the next 9 months. The patient was able to resume their social life during the period of 9 months and then passed away after 2 months. The patient's life was prolonged more than 1 year following their projected mortality under the conventional Avastin® infusion treatment on the recurring malignant hepatic tumor.
Therefore, a dosage of about 1.2 mg/kg/d of zeaxanthin was sufficient to help reducing tumor cell viability in the patient under the combination therapy.

CC1=C(/C=C/C(C)=C/C=C/C(C)=C/C=C/C=C(C)/C=C/C=C(C)/C=C/C2=C(C)C[C@@H](O)CC2(C)C)C(C)(C)C[C@H](O)C1 [zeaxanthin]
Cell viability (C918; C918, 10 μM zeaxanthin): 79 ± 4.1% | reduction of cell viabilities (C918; C918, 10 μM zeaxanthin): about 21% | Cell viability (C918; C918, 30 μM zeaxanthin): 48 ± 2.6% | reduction of cell viabilities (C918; C918, 30 μM zeaxanthin): ~52% | Cell viability (C918; C918, 100 μM zeaxanthin): 12 ± 1.0% | reduction of cell viabilities (C918; C918, 100 μM zeaxanthin): ~88% | Cell viability (Hep G2; Hep G2, 10 μM zeaxanthin): 79 ± 3.7% | Cell viability (Hep G2; Hep G2, 30 μM zeaxanthin): 58 ± 1.8% | Cell viability (Hep G2; Hep G2, 100 μM zeaxanthin): 32 ± 1.2% | Cell viability (PC-3; PC-3, 10 μM zeaxanthin): 74 ± 4.4% | Cell viability (PC-3; PC-3, 30 μM zeaxanthin): 62 ± 3.2% | Cell viability (PC-3; PC-3, 100 μM zeaxanthin): 39 ± 2.6% | Cell viability (NCI-H358; NCI-H358, 10 μM zeaxanthin): 80 ± 3.5% | Cell viability (NCI-H358; NCI-H358, 30 μM zeaxanthin): 65 ± 3.0% | Cell viability (NCI-H358; NCI-H358, 100 μM zeaxanthin): 37 ± 1.3% | Cell viability (OS143; OS143, 10 μM zeaxanthin): 82 ± 5.0% | Cell viability (OS143; OS143, 30 μM zeaxanthin): 78 ± 3.4% | Cell viability (OS143; OS143, 100 μM zeaxanthin): 42 ± 1.3% | Cell viability (A549; A549, 10 μM zeaxanthin): 94 ± 6.6% | Cell viability (A549; A549, 30 μM zeaxanthin): 86 ± 4.4% | Cell viability (A549; A549, 100 μM zeaxanthin): 67 ± 6.1% | final concentration at which cell viability decreased significantly (A549; A549, vs cells without zeaxanthin): ≥ 100 µM | final concentration at which cell viability decreased significantly (PANC-1; PANC, vs cells without zeaxanthin): ≥ 100 µM | Cell viability (PANC-1; PANC-1, 10 μM zeaxanthin): 101 ± 6.0% | Cell viability (PANC-1; PANC-1, 30 μM zeaxanthin): 98 ± 5.5% | Cell viability (PANC-1; PANC-1, 100 μM zeaxanthin): 76 ± 5.1% | Cell viability (BC-1; BC-1, 10 μM zeaxanthin): 79 ± 8.2% | Cell viability (BC-1; BC-1, 30 μM zeaxanthin): 67 ± 11% | Cell viability (BC-1; BC-1, 100 μM zeaxanthin): 69 ± 7.1% | final concentration at which cell viability decreased significantly (BC-1; BC-1, vs cells without zeaxanthin): ≥ 30 µM | MRI scans of multiple recurrent hepatic tumors (malignant hepatic tumor; 80 mg/day zeaxanthin supplementing Avastin infusion, after several months): began to shrink significantly to the point of where the tumors could not be detected | prolongation of life beyond projected mortality under conventional Avastin infusion (malignant hepatic tumor; 80 mg/day zeaxanthin with Avastin infusion): more than 1 year
